≈ marks a conversion by molar mass, not a printed value. Calls of active or inactive are those of the source. The calls are words filed in the database; no cut-off is given here.
Key:
HeLa = assay: Antiproliferative activity against human HeLa cells assessed as reduction in cell viability measured after 72 hrs by MTT assay; type: functional, cell-based
MCF7 = assay: Antiproliferative activity against human MCF7 cells assessed as reduction in cell viability measured after 72 hrs by MTT assay; type: functional, cell-based; conditions: MCF7, 72 h
MGC-803 = assay: Antiproliferative activity against human MGC-803 cells assessed as reduction in cell viability measured after 72 hrs by MTT assay; type: functional, cell-based; conditions: MGC-803, 72 h
Tubulin (Homo sapiens) [1] = target: T1, Tubulin (Homo sapiens) (UniProt P68371+Q9H4B7+P0DPH7+P68366+Q13509+Q71U36+P04350+Q3ZCM7+P07437+P68363+Q9BQE3+Q6PEY2+Q13885+Q9BVA1+Q9BUF5); assay: Induction of microtubule distruption in human A549 cells assessed as spindle shaped microtubule structure at 2.5 to 10 uM measured after 48 hrs by immunofluorescence based laser scanning confocal microscopic analysis; type: cell-based; conditions: dose 2.5-10 µM
Tubulin (Homo sapiens) [2] = target: T1, Tubulin (Homo sapiens); assay: Induction of microtubule distruption in human A549 cells assessed as disseminated microtubules in cytoplasm at 2.5 to 10 uM measured after 48 hrs by immunofluorescence based laser scanning confocal microscopic analysis; type: cell-based; conditions: dose 2.5-10 µM
Tubulin (Homo sapiens) [3] = target: T1, Tubulin (Homo sapiens); assay: Induction of microtubule distruption in human A549 cells assessed as occurence of cell shrinkage at 2.5 to 10 uM measured after 48 hrs by immunofluorescence based laser scanning confocal microscopic analysis; conditions: dose 2.5-10 µM
Tubulin (Homo sapiens) [4] = target: T1, Tubulin (Homo sapiens); assay: Induction of microtubule distruption in human A549 cells assessed as reduction in number of living cells at 2.5 to 10 uM measured after 48 hrs by immunofluorescence based laser scanning confocal microscopic analysis; type: cell-based; conditions: dose 2.5-10 µM
A549 [5] = assay: Antiproliferative activity against human A549 cells assessed as reduction in cell viability measured after 72 hrs by MTT assay; type: functional, cell-based; conditions: A549, 72 h
A549 [6] = assay: Induction of apoptosis in human A549 cells assessed as live cells at 2.5 uM measured after 48 hrs by Annexin V-FITC/PI staining based flow cytometry analysis (Rvb= 97.1%); type: functional
A549 [7] = assay: Induction of apoptosis in human A549 cells assessed as early apoptotic cells at 2.5 uM measured after 48 hrs by Annexin V-FITC/PI staining based flow cytometry analysis (Rvb= 0.72%); type: functional
A549 [8] = assay: Induction of apoptosis in human A549 cells assessed as live cells at 5 uM measured after 48 hrs by Annexin V-FITC/PI staining based flow cytometry analysis (Rvb= 97.1%); type: functional
A549 [9] = assay: Induction of apoptosis in human A549 cells assessed as late apoptotic cells at 5 uM measured after 48 hrs by Annexin V-FITC/PI staining based flow cytometry analysis (Rvb= 1.47%); type: functional
A549 [10] = assay: Induction of apoptosis in human A549 cells assessed as dead cells at 5 uM measured after 48 hrs by Annexin V-FITC/PI staining based flow cytometry analysis (Rvb= 0.67%); type: functional
A549 [11] = assay: Induction of apoptosis in human A549 cells assessed as live cells at 10 uM measured after 48 hrs by Annexin V-FITC/PI staining based flow cytometry analysis (Rvb= 97.1%); type: functional
A549 [12] = assay: Induction of apoptosis in human A549 cells assessed as early apoptotic cells at 10 uM measured after 48 hrs by Annexin V-FITC/PI staining based flow cytometry analysis (Rvb= 0.72%); type: functional
A549 [13] = assay: Induction of apoptosis in human A549 cells assessed as late apoptotic cells at 10 uM measured after 48 hrs by Annexin V-FITC/PI staining based flow cytometry analysis (Rvb= 1.47%); type: functional
A549 [14] = assay: Induction of apoptosis in human A549 cells assessed as dead cells at 10 uM measured after 48 hrs by Annexin V-FITC/PI staining based flow cytometry analysis (Rvb= 0.67%); type: functional
A549 [15] = assay: Induction of apoptosis in human A549 cells assessed as activation of the initiator caspase-9 measured after 48 hrs by western blot analysis; type: functional, cell-based
A549 [16] = assay: Induction of apoptosis in human A549 cells assessed as cleavage of PARP at 2.5 to 10 uM measured after 48 hrs by western blot analysis; type: functional, cell-based; conditions: dose 2.5-10 µM
A549 [17] = assay: Antiproliferative activity against human A549 cells assessed as decrease in DNA synthesis at 2.5 to 10 uM by Edu incorporation assay; type: functional, cell-based; conditions: dose 2.5-10 µM
A549 [18] = assay: Induction of cell cycle arrest in human A549 cells assessed as increase in number of cells accumulation at G2/M phase at 5 uM measured after 48 hrs by flow cytometry analysis (Rvb= 16.72%); type: functional
A549 [19] = assay: Induction of cell cycle arrest in human A549 cells assessed as increase in number of cells accumulation at G2/M phase at 10 uM measured after 48 hrs by flow cytometry analysis (Rvb= 16.72%); type: functional
A549 [20] = assay: Induction of cell cycle arrest in human A549 cells assessed as accumulation of cells at G1 phase at 2.5 uM measured after 48 hrs by flow cytometry analysis (Rvb= 60.29%); type: functional
A549 [21] = assay: Induction of cell cycle arrest in human A549 cells assessed as accumulation of cells at G1 phase at 5 uM measured after 48 hrs by flow cytometry analysis (Rvb= 60.29%); type: functional
A549 [22] = assay: Induction of cell cycle arrest in human A549 cells assessed as accumulation of cells at G1 phase at 10 uM measured after 48 hrs by flow cytometry analysis (Rvb= 60.29%); type: functional
HUVEC [23] = assay: Antivascular activity against HUVEC cells assessed as inhibition of capillary-like tubule formation measured after 6 hrs by matrigel matrix based microscopic analysis; type: functional, cell-based; conditions: Homo sapiens, dose 0.25-1 µM
HUVEC [24] = assay: Antivascular activity against HUVEC cells assessed as reduction in number of branching points measured after 6 hrs by imaging analysis; type: functional, cell-based; conditions: Homo sapiens, dose 0.25-1 µM
HUVEC [25] = assay: Antivascular activity against HUVEC cells assessed as segment length measured after 6 hrs by imaging analysis; type: functional, cell-based; conditions: Homo sapiens, dose 0.25-1 µM
HUVEC [26] = assay: Antivascular activity against HUVEC cells assessed as reduction in area and number of meshes measured after 6 hrs by imaging analysis; type: functional, cell-based; conditions: Homo sapiens, dose 0.25-1 µM
HUVEC [27] = assay: Antivascular activity against HUVEC cells assessed as reduction in area covered by HUVECs measured after 6 hrs by imaging analysis; type: functional, cell-based; conditions: Homo sapiens, dose 0.25-1 µM
HUVEC [28] = assay: Inhibition of cell migration in HUVEC cells assessed as decrease in closure of wound scratching measured after 48 hrs by wound healing assay; type: functional, cell-based; conditions: Homo sapiens, dose 0.25-1 µM
HUVEC [29] = assay: Antiinvasive activity in HUVEC cells assessed as decrease in cell invasion at 0.25 to 1 uM measured after 48 hrs by crystal violet staining based transwell assay; type: functional; conditions: Homo sapiens, dose 0.25-1 µM
Danio rerio [30] = species: Danio rerio; assay: Antiangiogenic activity in transgenic Tg(flk:EGFP) zebra fish embryos assessed as reduction in number of intersegmental vessels measured at 30 hrs post fertilization by confocal fluorescence microscopy analysis; type: functional, organism-based; conditions: dose 1-4 µM
Danio rerio [31] = species: Danio rerio; assay: Antiangiogenic activity in transgenic Tg(flk:EGFP) zebra fish embryos assessed as disruption of intersegmental vessels formation measured at 30 hrs post fertilization by confocal fluorescence microscopy analysis; type: functional, organism-based
[32] = Kinetic solubility of the compound at pH 2 by nephelometry; type: physicochemical; conditions: buffer, read-out: Kinetic_solubility
[33] = Kinetic solubility of the compound at pH 6.5 by nephelometry; type: physicochemical; conditions: buffer, read-out: Kinetic_solubility
[34] = Metabolic stability in human liver microsomes assessed as degradation half life; type: ADME, Microsome; conditions: microsomes
[35] = Intrinsic clearance in human liver microsome; type: ADME, microsomes; conditions: microsomes

## COc1ccc2c(c1)-c1occ(C)c1C(=O)C2=O
HeLa
  IC50: 280 nM
MCF7
  IC50: 3160 nM
MGC-803
  IC50: 840 nM
Tubulin (Homo sapiens) [1]
  Activity: inactive
Tubulin (Homo sapiens) [2]
  Activity: Active
Tubulin (Homo sapiens) [3]
  Activity: Active
Tubulin (Homo sapiens) [4]
  Activity: Active
A549 [5]
  IC50: 320 nM
A549 [6]
  Activity: 94.5%
A549 [7]
  Activity: 1.55%
A549 [8]
  Activity: 82.8%
A549 [9]
  Activity: 5.58%
A549 [10]
  Activity: 1.28%
A549 [11]
  Activity: 11.1%
A549 [12]
  Activity: 80.2%
A549 [13]
  Activity: 8.19%
A549 [14]
  Activity: 0.5%
A549 [15]
  Activity: Dose-Dependent Effect
A549 [16]
  Activity: Active
A549 [17]
  Activity: Active
A549 [18]
  Activity: 20%
A549 [19]
  Activity: 32.19%
A549 [20]
  Activity: 61.93%
A549 [21]
  Activity: 54.43%
A549 [22]
  Activity: 55.29%
HUVEC [23]
  Activity: Active
HUVEC [24]
  Activity: Dose-Dependent Effect
HUVEC [25]
  Activity: Dose-Dependent Effect
HUVEC [26]
  Activity: Dose-Dependent Effect
HUVEC [27]
  Activity: Dose-Dependent Effect
HUVEC [28]
  inhibition: Dose-Dependent Effect
HUVEC [29]
  Activity: Active
Danio rerio [30]
  Activity: Dose-Dependent Effect
Danio rerio [31]
  Activity: Dose-Dependent Effect
[32]
  solubility kinetic: 250 µg/mL (≈ 1030 µM)
[33]
  solubility kinetic: 405 µg/mL (≈ 1670 µM)
[34]
  t1/2: 1.8 h
[35]
  CLH: 175 µL/min/mg
